According to paper PMC11012289, “The Discovery of New Inhibitors of Insulin-Regulated Aminopeptidase by a High-Throughput Screening of 400,000 Drug-like Compounds” (International Journal of Molecular Sciences, 2024):
Where two headings read alike, the source gives them in different places. Where no end group is shown, it is not given here. [ ]: non-standard residue; d: D form. Nle = CCCC[C@H](N)C(=O)O

Columns and labels:
[1] = cited from earlier work
[2] = target: IRAP; set-up: method as in PMID 18716029; settings: cited from earlier work
[3] = system: rats; settings: cited from earlier work
[4] = target: IRAP; settings: read-out: Ki (affinity to IRAP); cited from earlier work
[5] = system: APN, ERAP1, ERAP2, and LTA4H; settings: cited from earlier work
[6] = system: rodents; set-up: method as in PMID 19233301, PMID 18716029; settings: intracerebroventricular administration; cited from earlier work
[7] = target: T1, IRAP (Homo sapiens, UniProt Q9UIQ6); assay: Thermal shift (TSA) IRAP assay; type: binding; settings: screening hits at 30 µM, 1% DMSO
T1 construct: The screen was performed with the soluble truncated IRAP enzyme; made in house
T1 sequence (Q9UIQ6 155-1025 limits assumed): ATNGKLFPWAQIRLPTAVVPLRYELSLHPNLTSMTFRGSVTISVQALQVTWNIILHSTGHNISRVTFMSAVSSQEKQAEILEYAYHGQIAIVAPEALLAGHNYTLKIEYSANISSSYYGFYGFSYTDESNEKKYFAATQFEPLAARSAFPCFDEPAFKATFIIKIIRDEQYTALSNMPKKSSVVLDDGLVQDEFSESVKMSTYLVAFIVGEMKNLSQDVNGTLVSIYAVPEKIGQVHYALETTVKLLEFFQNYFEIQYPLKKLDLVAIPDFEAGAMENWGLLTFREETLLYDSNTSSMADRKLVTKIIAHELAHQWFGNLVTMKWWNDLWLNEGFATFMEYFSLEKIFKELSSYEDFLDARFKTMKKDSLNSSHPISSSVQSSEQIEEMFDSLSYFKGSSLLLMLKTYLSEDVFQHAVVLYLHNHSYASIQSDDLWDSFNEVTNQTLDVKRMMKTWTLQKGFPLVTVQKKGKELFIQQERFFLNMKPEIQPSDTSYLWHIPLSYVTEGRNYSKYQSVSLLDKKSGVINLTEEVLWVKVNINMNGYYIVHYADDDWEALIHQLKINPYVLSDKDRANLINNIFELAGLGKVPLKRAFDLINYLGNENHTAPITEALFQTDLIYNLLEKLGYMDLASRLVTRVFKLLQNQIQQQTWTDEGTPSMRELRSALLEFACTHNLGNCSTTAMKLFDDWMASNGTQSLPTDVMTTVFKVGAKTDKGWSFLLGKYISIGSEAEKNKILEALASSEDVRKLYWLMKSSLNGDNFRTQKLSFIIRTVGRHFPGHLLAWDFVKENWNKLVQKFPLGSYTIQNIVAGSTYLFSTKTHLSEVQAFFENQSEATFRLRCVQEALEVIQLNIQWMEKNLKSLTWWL

[8] = target: T1, IRAP; assay: Orthogonal absorbance IRAP assay (L-Leucine para-nitroanilide cleavage); type: biochemical; settings: 1 mM L-Leucine p-Nitroanilide, 120 min RT; for IC50: read-out: Absorbance pIC50 (converted)
Outline: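 Absorbance assay: IRAP protein at 2.5 × 10^−4 mg/mL final with 1 mM L-leucine para-nitroanilide in buffer containing 0.05% BSA; 120 min at RT in the dark. para-Nitroaniline read at 405 nm. Dose–response spanned 20 μM–27.4 nM compound, 1% DMSO.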

[9] = target: T1, IRAP; assay: Primary fluorescence IRAP assay (L-Leucine-7-amido-4-methylcoumarin cleavage); type: biochemical; settings: for IC50 / Fluorescence pIC50: 37.5 µM L-Leucine-7-amido-4-methylcoumarin, 60 min RT, dose-response 20 µM-27.4 nM; for IC50: read-out: Fluorescence IC50; for LipE: calculated from (pIC50Fluorescence − LogD)
[10] = set-up: method as in ELF screening history; settings: ref ELF screening history, cited from earlier work; for Enzyme Active: number of ELF enzyme screens in which the compound was active; for Targets active: number of ELF screens in which the compound was active; for Enzyme Active %: share of ELF enzyme targets screened; for Targets Active %: share of all ELF targets screened
[11] = target: T1, IRAP; assay: Deselection fluorescence IRAP assay with 10 µM zinc; type: biochemical; settings: 10 µM ZnSO4 in assay buffer; for IC50: read-out: Fluorescence + Zn pIC50 (converted)
[12] = system: primary hippocampal neuron cultures; set-up: method as in PMID 26769413, PMID 36286055; settings: cited from earlier work

For `CC[C@H](C)[C@H](NC(=O)[C@H](Cc1ccc(O)cc1)NC(=O)[C@@H](CN)C(C)C)C(=O)N[C@H]1Cc2c([nH]c3ccccc23)CN(CC(=O)N[C@@H](Cc2ccccc2)C(=O)O)C1=O` [IVDE77], the metabolic stability [1] is listed as “improved metabolic stability”.

In the case of `CCOC(=O)C1=C(NC(C)=O)Oc2cc(O)ccc2C1c1cnc2ccccc2c1` (centres unmarked) [HFI-437], the Ki [2] is given as 0.02 µM.

For Val-Tyr-Ile-His-Pro-Phe [Ang IV], the “effect on memory and learning” value ([3]; intracerebroventricular injection) is given as “improved memory and learning” and the Ki [4] is given as 0.062 µM.

In the case of `CCOC(=O)C1=C(NC(C)=O)Oc2cc(O)ccc2C1c1cccnc1` (centres unmarked) [HFI-419], the “selectivity versus other aminopeptidases” value [5] is listed as “high selectivity”, the effect on cognition [6] is listed as “cognitive-enhancing effect” and the Ki [2] is listed as 0.42 µM.

In the case of “Leu-Val-Val-Tyr-Pro-Trp-Thr-Gln-Arg-Phe (LVVYPWTQRF; printed: Leu-Val-Val-Tyr-Pro-Trp-Thr-Gln-Arg-Phe) [LVV-hemorphin-7, structural analog of Ang IV]”, the “effect on memory retention and retrieval” value [3] is given as “strong promoters of memory retention and retrieval”.

In the case of `CSc1[nH]c(-c2ccccc2)nc1S(=O)(=O)c1ccccc1` [QHL28], the ΔTm at 30 µM [7] is reported as 0.15 °C, the IC50 [8] is reported as 15.5 µM and the IC50 [9] is reported as 3.24 µM. For the same compound, the LipE [9] was 1.54, the “Enzyme Active” value [10] was 4 and the Targets active [10] was 6. The “Enzyme Active %” value [10] was 4.3%, the “Targets Active %” value [10] was 4.0% and the IC50 [11] was 5.62 µM.

Compound `COc1ccc([C@@H]2c3nnnn3CCN2CCCN(C)c2ccccc2)c(C)c1` [QHL13] has a ΔTm at 30 µM [7] of -1.91 °C, an IC50 [8] of 16.2 µM and an IC50 [9] of 2.14 µM. The LipE [9] was 2.39, the “Enzyme Active” value [10] was 12 and the Targets active [10] was 19. The “Enzyme Active %” value [10] was 14.1%, the “Targets Active %” value [10] was 13.2% and the IC50 [11] was 2 µM.

`COc1cc(C(=O)N2CCc3n[nH]c(-c4cccs4)c3CC2)on1` [QHL9] showed a ΔTm at 30 µM [7] of 0.15 °C, an IC50 [8] greater than 20 µM and an IC50 [9] of 1.51 µM. The LipE [9] was 2.98, the “Enzyme Active” value [10] was 2 and the Targets active [10] was 4. For the same compound, the “Enzyme Active %” value [10] was 4.9%, the “Targets Active %” value [10] was 5.3% and the IC50 [11] was 1.58 µM.

For `CCOC(=O)c1c(Cl)cc(C)nc1N1CCCC(Cc2ccc(C(=O)N(C)C)cc2)C1` (centres unmarked) [QHL39], the “TSA (∆°C), thermal shift of IRAP” value [7] was 0 °C, the “Absorbance pIC50” value [8] was 5.12 and the “Fluorescence pIC50” value [9] was 5.33. The IC50 [9] was 4.68 µM, the LipE [9] was 0.66 and the “Enzyme Active” value [10] was 6. For the same compound, the Targets active [10] was 7, the “Enzyme Active %” value [10] was 7.1% and the “Targets Active %” value [10] was 4.9%. The “Fluorescence + Zn pIC50” value [11] was 5.33.

For `Cc1cccc(Cl)c1CNc1ncnc2ncn(C)c12` [QHL12], the ΔTm at 30 µM [7] was -0.15 °C, the IC50 [8] was 13.8 µM and the IC50 [9] was 1.91 µM. The LipE [9] was 1.68, the “Enzyme Active” value [10] was 3 and the Targets active [10] was 3. The “Enzyme Active %” value [10] was 3.6%, the “Targets Active %” value [10] was 2.1% and the IC50 [11] was 1.95 µM.

For `CCn1c(=O)n(CC(=O)N(C)CCc2ccc(O)c3[nH]c(=O)sc23)c2ccccc21` [QHL45], the “TSA (∆°C), thermal shift of IRAP” value [7] was 0.89 °C, the “Absorbance pIC50” value [8] was 6.09 and the “Fluorescence pIC50” value [9] was 5.11. The IC50 [9] was 7.76 µM, the LipE [9] was 2.74 and the “Enzyme Active” value [10] was 5. The Targets active [10] was 11, the “Enzyme Active %” value [10] was 6.0% and the “Targets Active %” value [10] was 7.9%. For the same compound, the “Fluorescence + Zn pIC50” value [11] was 5.12.

In the case of `COc1cc(CN2C(Cc3ccc(S(C)(=O)=O)cc3)CCC2c2cccnc2)cc(OC)c1` (centres unmarked) [QHL35], the “TSA (∆°C), thermal shift of IRAP” value [7] is reported as 0 °C, the “Absorbance pIC50” value [8] is reported as 4.85 and the “Fluorescence pIC50” value [9] is reported as 5.40. For the same compound, the IC50 [9] was 3.98 µM, the LipE [9] was 1.15 and the “Enzyme Active” value [10] was 6. The Targets active [10] was 8, the “Enzyme Active %” value [10] was 6.8% and the “Targets Active %” value [10] was 5.5%. The “Fluorescence + Zn pIC50” value [11] was 5.34.

With `CC(C)CC(C(=O)NO)S(=O)(=O)N1CCN(c2ccc(F)cc2)CC1` (centres unmarked) [QHL24] the ΔTm at 30 µM [7] was 4 °C, the IC50 [8] was 3.02 µM and the IC50 [9] was 3.09 µM. The LipE [9] was 3.57, the “Enzyme Active” value [10] was 2 and the Targets active [10] was 2. For the same compound, the “Enzyme Active %” value [10] was 5.4%, the “Targets Active %” value [10] was 3.5% and the IC50 [11] was 5.5 µM.

For `NCC[C@H]1CCCCN1C(=O)Cn1nc(-c2ccc(Cl)cc2)c2c1CCCC2` [QHL11], the ΔTm at 30 µM [7] was 1.92 °C, the IC50 [8] was 3.89 µM and the IC50 [9] was 1.66 µM. The LipE [9] was 2.57, the “Enzyme Active” value [10] was 4 and the Targets active [10] was 5. For the same compound, the “Enzyme Active %” value [10] was 4.2%, the “Targets Active %” value [10] was 3.4% and the IC50 [11] was 1.7 µM.

With `Fc1ccc(F)c(Cn2ccc3ncc(N4CCNCC4)cc32)c1Cl` [QHL7] the ΔTm at 30 µM [7] was 0.3 °C, the IC50 [8] was greater than 20 µM and the IC50 [9] was 1.29 µM. The LipE [9] was 2.10, the “Enzyme Active” value [10] was 8 and the Targets active [10] was 9. The “Enzyme Active %” value [10] was 8.6%, the “Targets Active %” value [10] was 6.0% and the IC50 [11] was 1.38 µM.

For `O=C(Cc1cc(N2CCCCCC2)nc(-c2ccc(Cl)cc2)n1)NO` [QHL29], the ΔTm at 30 µM [7] was 1.92 °C, the IC50 [8] was 2.95 µM and the IC50 [9] was 3.31 µM. For the same compound, the LipE [9] was 1.60, the “Enzyme Active” value [10] was 10 and the Targets active [10] was 14. The “Enzyme Active %” value [10] was 11.8%, the “Targets Active %” value [10] was 10.2% and the IC50 [11] was 3.24 µM.

Work on `O=C(Cc1cc(N2CCCCC2)nc(-c2cccc(F)c2)n1)NO` [QHL21] yielded a ΔTm at 30 µM [7] of 2.66 °C, an IC50 [8] of 5.62 µM and an IC50 [9] of 2.95 µM. The LipE [9] was 2.57, the “Enzyme Active” value [10] was 6 and the Targets active [10] was 9. For the same compound, the “Enzyme Active %” value [10] was 6.9%, the “Targets Active %” value [10] was 6.3% and the IC50 [11] was 2.82 µM.

For “Nle-Tyr-Ile-His-Pro-Phe ([Nle]YIHPF) [Nle-Ang IV, structural analog of Ang IV]”, the “effect on memory retention and retrieval” value [3] is given as “strong promoters of memory retention and retrieval”.

For `N[C@H]1CCSSC[C@@H](C(=O)NCc2ccccc2CC(=O)O)NC(=O)C[C@H](Cc2ccc(O)cc2)NC1=O` [HA08], the “effect on hydrogen peroxide-induced toxicity” value [12] is listed as “reversed hydrogen peroxide-induced toxicity” and the “effect on spine density” value [12] is listed as “enhanced spine densities”.
